Source: patent US9743646B2, “Method of establishing isogenic multi-xenograft model and the use thereof” (Crown Bioscience Inc. (Taicang), priority 2014, dated 2017)

Legend:
Type in all cases: in vivo, Nude mice
[1] = system: SW48-parental xenograft (HD PAR-006, KRAS WT); test: Tumor volume of SW48-parental xenograft in isogenic dual-xenograft mice; details: Erlotinib 50 mg/kg p.o. once daily, 14 days, vs saline
Procedure: The SW48 series colorectal adenocarcinoma cells were obtained from Horizon Discovery Ltd (see below in Table 1 for Catalogue number details), and maintained in vitro as a monolayer culture in McCoy's 5A medium supplemented with 10% heat inactivated fetal bovine serum, 2 mM L-glutamine, with or without G418, at 37° C. in an atmosphere of 5% CO2 in air. The tumor cells were routinely subcultured every 3-5 days by trypsin-EDTA treatment. Cells growing in an exponential growth phase were harvested and counted for tumor inoculation. HD 103-002 cell line was derived from parental SW48 cell line HD PAR-006 with heterozygous knock-in of KRAS activating mutation-G13D; HD 103-007 cell line was derived from parental SW48 cell line HD PAR-006 with heterozygous knock-in of KRAS activating mutation-G12V. […]
(§1) The major endpoint was to evaluate the tumor growth. Tumor sizes were measured twice weekly in two dimensions using a caliper, and the volume were expressed in mm3 using the formula: V=0.5 a×b^2, where a and b are the long and short diameters of the tumor, respectively.

[2] = system: SW48-KRAS (G13D/+) xenograft (HD 103-002); test: Tumor volume of SW48-KRAS (G13D/+) xenograft in isogenic dual-xenograft mice
Procedure: (§2) The SW48 series colorectal adenocarcinoma cells were obtained from Horizon Discovery Ltd (see below in Table 1 for Catalogue number details), and maintained in vitro as a monolayer culture in McCoy's 5A medium supplemented with 10% heat inactivated fetal bovine serum, 2 mM L-glutamine, with or without G418, at 37° C. in an atmosphere of 5% CO2 in air. The tumor cells were routinely subcultured every 3-5 days by trypsin-EDTA treatment. Cells growing in an exponential growth phase were harvested and counted for tumor inoculation. HD 103-002 cell line was derived from parental SW48 cell line HD PAR-006 with heterozygous knock-in of KRAS activating mutation-G13D; HD 103-007 cell line was derived from parental SW48 cell line HD PAR-006 with heterozygous knock-in of KRAS activating mutation-G12V.
(§3) Each mouse is grafted subcutaneously at the left and right flank with SW48 tumor cells (1×10^7 cells) in 0.1 ml of PBS for tumor development, among which 15 mouse are grafted with 1×10^7HD PAR-006 cells at their left flank and with 1×10^7 HD 103-002 cells at their right flank, and the other 15 mouse are grafted with 1×10^7 HD PAR-006 cells at their left flank and with 1×10^7 HD103-007 cells at their right flank. Mice with xenografts are then allow sufficient time (in present embodiment, around 5-8 days) to develop solid tumor.
(§4) Isogenic dual-xenograft mice produced in accordance to the methods described in Example 1 were used to evaluate test agents for their efficacy on the disease associated with mutations of gene. More specifically, mice with different KRAS mutations were treated with EGFR inhibitors to address the question of resistant phenotypes elicited by different KRAS mutations. This design allows direct comparison of wild type and mutant isogenic pairs for treatment responses that are associated with the defined genetic variations.
as §1

[3] = system: SW48-KRAS (G12V/+) xenograft (HD 103-007); test: Tumor volume of SW48-KRAS (G12V/+) xenograft in isogenic dual-xenograft mice
Procedure: as §2, §3, §4, §1

[4] = Erlotinib 50 mg/kg p.o. once daily, 14 days
[5] = Erlotinib 50 mg/kg, p.o., Qd x 14, SW48 KRAS(G13D/+), tumor volume
[6] = Erlotinib 50 mg/kg, p.o., Qd x 14, SW48 KRAS(G12V/+), tumor volume

C#Cc1cccc(Nc2ncnc3cc(OCCOC)c(OCCOC)cc23)c1 [Erlotinib]
effect on tumor volume of the SW48-parental xenograft (FIG. 2A) ([1]; dual model with SW48-KRAS (G12V/+)): reduced | effect on tumor volume of the SW48-parental xenograft (FIG. 1A) ([1]; dual model with SW48-KRAS (G13D/+)): significantly reduced | response of SW48 KRAS (G13D/+) compared to the parental line [2, 4]: remains sensitive | effect on tumor volume of the SW48-KRAS (G13D/+) xenograft (FIG. 1B) ([2]; Erlotinib 50 mg/kg p.o. once daily, 14 days, vs saline): significantly reduced | T/C on Day 21 [2, 5]: 24% | TGI on Day 21 [2, 5]: 76% | response of SW48 KRAS (G12V/+) compared to the parental line [3, 4]: resistant | reduction on the tumor volume of the SW48-KRAS (G12V/+) xenograft (FIG. 2B) ([3]; Erlotinib 50 mg/kg p.o. once daily, 14 days, compared with parental xenograft): not as significant as on the SW48-KRAS-parental xenograft | T/C on Day 21 [3, 6]: 86% | TGI on Day 21 [3, 6]: 14%
